In patent publication US10898481B2 (priority 2018, dated 2021):

Assays:
Type in all cases: cell-based
hA2a/CHO = hA2a/CHO (Homo sapiens (Human), UniProt P29274); test: cAMP inhibition assay in hA2a/CHO cells, 10 μM adenosine; details: read-out: cAMP & FLIPR IC50 (nM) hA2a;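 also: compounds added to cells 30 min ahead of adenosine, then a further 30 min at 37 °C with adenosine before cAMP detection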
Protocol: (§1) hA2a/CHO, hA2b/CHO, hA3/CHO and mA2a/CHO (Genscript) were plated at 5×10^3 cells/well into 384-well polystyrene plates at the day of experiment. Compounds were pre-incubated with cells for 30 min at 37° C., 5% CO2. Then 10 μM adenosine was added to the cells and incubated for 30 min at 37° C., 5% CO2. Detection reagent (CISBIO) was added and the plates were incubated for 60 min at room temperature. The signal was captured by Envision.

hA2b/CHO = hA2b/CHO (Homo sapiens (Human), UniProt P29275); test: cAMP inhibition assay in hA2b/CHO cells, 10 μM adenosine; details: read-out: cAMP & FLIPR IC50 (nM) hA2b;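 also: cells exposed to compound 30 min at 37 °C, then stimulated with adenosine a further 30 min, cAMP read after 60 min at room temperature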
Protocol: as §1

mA2a/CHO = mA2a/CHO (Mus musculus (Mouse), UniProt Q60613); test: cAMP inhibition assay in mA2a/CHO cells, 10 μM adenosine; details: read-out: cAMP & FLIPR IC50 (nM) mA2a;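 also: compounds preincubated 30 min at 37 °C before the adenosine challenge, then 30 min further stimulation, readout after 60 min detection reagent incubation at room temperature in 384-well plates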
Sequence of mA2a/CHO (Q60613 whole entry): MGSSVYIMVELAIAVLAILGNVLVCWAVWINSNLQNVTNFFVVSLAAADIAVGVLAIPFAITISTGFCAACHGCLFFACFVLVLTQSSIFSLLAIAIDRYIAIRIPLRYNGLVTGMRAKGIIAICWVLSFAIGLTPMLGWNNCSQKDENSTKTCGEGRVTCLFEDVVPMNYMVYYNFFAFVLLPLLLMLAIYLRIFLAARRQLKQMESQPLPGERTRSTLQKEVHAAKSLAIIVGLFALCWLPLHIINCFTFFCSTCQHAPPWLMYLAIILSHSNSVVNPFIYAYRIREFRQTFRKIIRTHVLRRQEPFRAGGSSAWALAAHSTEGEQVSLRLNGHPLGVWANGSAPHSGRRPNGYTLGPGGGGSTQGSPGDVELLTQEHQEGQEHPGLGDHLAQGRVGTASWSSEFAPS
Protocol: as §1

Sequence of hA2a/CHO (P29274 whole entry): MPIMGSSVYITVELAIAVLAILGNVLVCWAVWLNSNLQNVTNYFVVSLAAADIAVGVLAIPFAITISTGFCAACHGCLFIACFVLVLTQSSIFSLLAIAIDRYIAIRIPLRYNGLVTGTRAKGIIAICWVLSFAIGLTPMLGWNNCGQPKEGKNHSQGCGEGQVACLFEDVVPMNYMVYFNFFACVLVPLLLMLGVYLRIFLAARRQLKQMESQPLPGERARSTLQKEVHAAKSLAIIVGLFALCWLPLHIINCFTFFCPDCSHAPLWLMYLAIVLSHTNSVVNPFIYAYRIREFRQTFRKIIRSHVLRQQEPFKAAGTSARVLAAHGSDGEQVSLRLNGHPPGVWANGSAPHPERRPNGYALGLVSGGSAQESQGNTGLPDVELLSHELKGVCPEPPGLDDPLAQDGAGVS
Sequence of hA2b/CHO (P29275 whole entry): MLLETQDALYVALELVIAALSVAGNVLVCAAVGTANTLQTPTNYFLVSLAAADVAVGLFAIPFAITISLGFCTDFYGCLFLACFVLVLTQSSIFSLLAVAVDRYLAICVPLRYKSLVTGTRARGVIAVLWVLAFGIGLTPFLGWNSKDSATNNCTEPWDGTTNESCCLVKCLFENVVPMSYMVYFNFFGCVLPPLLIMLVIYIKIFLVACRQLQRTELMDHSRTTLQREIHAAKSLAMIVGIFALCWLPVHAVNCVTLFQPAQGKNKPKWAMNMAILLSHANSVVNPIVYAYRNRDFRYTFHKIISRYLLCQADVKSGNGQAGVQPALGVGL

**Q.** What does the source list for Cc1cnc2ccc(-c3nc(C(=O)NCC4CCCCN4C)c(N)nc3-c3ncco3)cn12 (single isomer, unassigned; isomer 2) [Example 125, 3-amino-6-(3-methylimidazo[1,2-a]pyridin-6-yl)-N-((1-methylpiperidin-2-yl)methyl)-5-(oxazol-2-yl)pyrazine-2-carboxamide (isomer 2)]?
**A.** IC50 (hA2a/CHO): 1440 nM; IC50 (hA2b/CHO): ≥ 10000 nM; IC50 (mA2a/CHO): ≥ 10000 nM

**Q.** Which IC50 (hA2a/CHO) does the source give for Cc1cc(-c2nc(C(=O)NCc3ncccc3F)c(N)nc2-c2ccc(F)cc2)cc(C)n1 [Example 1, 3-amino-6-(2,6-dimethylpyridin-4-yl)-5-(4-fluorophenyl)-N-((3-fluoropyridin-2-yl)methyl)pyrazine-2-carboxamide] here?
**A.** The IC50 was 151 nM.

**Q.** What about the IC50 (hA2b/CHO) of the same molecule?
**A.** The IC50 was no less than 10000 nM.

**Q.** And the IC50 (mA2a/CHO)?
**A.** Its IC50 is 1060 nM.

**Q.** How did the IC50 (hA2a/CHO) turn out when Cc1cc(-c2nc(C(=O)NCc3ccccc3C(F)(F)F)c(N)nc2-c2ccc(F)cc2)cc(C)n1 [Example 53, 3-amino-6-(2,6-dimethylpyridin-4-yl)-5-(4-fluorophenyl)-N-(2-(trifluoromethyl)benzyl)pyrazine-2-carboxamide] was run?
**A.** Its IC50 is 60 nM.

**Q.** What about the IC50 (hA2b/CHO) of the same molecule?
**A.** Its IC50 is no less than 10000 nM.

**Q.** What about the IC50 (mA2a/CHO) of the same molecule?
**A.** Its IC50 is 529 nM.

**Q.** Which IC50 (hA2a/CHO) does the source give for Cc1ccn(-c2nc(N)c(C(=O)Nc3ccccc3OC(F)F)nc2-c2ccc(=O)n(C)c2)n1 [Example 59, 3-amino-N-(2-(difluoromethoxy)phenyl)-5-(3-methyl-1H-pyrazol-1-yl)-6-(1-methyl-6-oxo-1,6-dihydropyridin-3-yl)pyrazine-2-carboxamide] here?
**A.** The IC50 was 29 nM.

**Q.** And the IC50 (hA2b/CHO)?
**A.** Its IC50 is no less than 10000 nM.

**Q.** What about the IC50 (mA2a/CHO) of the same molecule?
**A.** Its IC50 is 66 nM.

**Q.** Cc1cc(-c2nc(C(=O)Nc3ccccc3OC(F)F)c(N)nc2-n2ccc(C)n2)cc(N)n1 [Example 60, 3-amino-6-(2-amino-6-methylpyridin-4-yl)-N-(2-(difluoromethoxy)phenyl)-5-(3-methyl-1H-pyrazol-1-yl)pyrazine-2-carboxamide] was tested. Which IC50 (hA2a/CHO) did it give?
**A.** Its IC50 is 24 nM.

**Q.** And the IC50 (hA2b/CHO)?
**A.** The IC50 was no less than 10000 nM.

**Q.** What about the IC50 (mA2a/CHO) of the same molecule?
**A.** The IC50 was 150 nM.

**Q.** How did the IC50 (hA2a/CHO) turn out when Cc1cc(-c2nc(C(=O)NCc3c(F)cccc3F)c(N)nc2-c2ccc(C)o2)cc(C)n1 [Example 62, 3-amino-N-(2,6-difluorobenzyl)-6-(2,6-dimethylpyridin-4-yl)-5-(5-methylfuran-2-yl)pyrazine-2-carboxamide] was run?
**A.** The IC50 was 1.8 nM.

**Q.** What about the IC50 (hA2b/CHO) of the same molecule?
**A.** The IC50 was no less than 10000 nM.

**Q.** And the IC50 (mA2a/CHO)?
**A.** Its IC50 is 28 nM.

**Q.** Which results are given for COc1ccccc1CNC(=O)c1nc(-c2cc(C)nc(C)c2)c(-c2cnn(C)c2)nc1N [Example 63, 3-amino-6-(2,6-dimethylpyridin-4-yl)-N-(2-methoxybenzyl)-5-(1-methyl-1H-pyrazol-4-yl)pyrazine-2-carboxamide]?
**A.** IC50 (hA2a/CHO): 33 nM; IC50 (hA2b/CHO): ≥ 10000 nM; IC50 (mA2a/CHO): 601 nM

**Q.** Cc1cc(-c2nc(C(=O)NCc3c(F)cccc3F)c(N)nc2-c2cnn(C)c2)cc(C)n1 [Example 64, 3-amino-N-(2,6-difluorobenzyl)-6-(2,6-dimethylpyridin-4-yl)-5-(1-methyl-1H-pyrazol-4-yl)pyrazine-2-carboxamide] was tested. Which IC50 (hA2a/CHO) did it give?
**A.** The IC50 was 52 nM.

**Q.** And the IC50 (hA2b/CHO)?
**A.** The IC50 was no less than 10000 nM.

**Q.** And the IC50 (mA2a/CHO)?
**A.** The IC50 was no less than 10000 nM.

**Q.** For COc1ncccc1CNC(=O)c1nc(-c2cc(C)nc(C)c2)c(-c2ccc(F)cc2)nc1N [Example 66, 3-amino-6-(2,6-dimethylpyridin-4-yl)-5-(4-fluorophenyl)-N-((2-methoxypyridin-3-yl)methyl)pyrazine-2-carboxamide], which IC50 (hA2a/CHO) is on record?
**A.** Its IC50 is 107 nM.

**Q.** What about the IC50 (hA2b/CHO) of the same molecule?
**A.** Its IC50 is no less than 10000 nM.

**Q.** What about the IC50 (mA2a/CHO) of the same molecule?
**A.** The IC50 was 730 nM.

**Q.** For COc1ccccc1CNC(=O)c1nc(-c2ccc(=O)n(C)c2)c(-c2ccc(F)cc2)nc1N [Example 67, 3-amino-5-(4-fluorophenyl)-N-(2-methoxybenzyl)-6-(1-methyl-6-oxo-1,6-dihydropyridin-3-yl)pyrazine-2-carboxamide], which IC50 (hA2a/CHO) is on record?
**A.** Its IC50 is 6.4 nM.

**Q.** What about the IC50 (hA2b/CHO) of the same molecule?
**A.** The IC50 was 67 nM.

**Q.** And the IC50 (mA2a/CHO)?
**A.** The IC50 was 25 nM.

**Q.** With COc1ccccc1CNC(=O)c1nc(-c2cc(C)nc(Cl)c2)c(-c2ccc(F)cc2)nc1N [Example 68, 3-amino-6-(2-chloro-6-methylpyridin-4-yl)-5-(4-fluorophenyl)-N-(2-methoxy-benzyl)pyrazine-2-carboxamide] as the molecule, how does the IC50 (hA2a/CHO) read?
**A.** Its IC50 is 7.5 nM.

**Q.** What about the IC50 (hA2b/CHO) of the same molecule?
**A.** Its IC50 is 952 nM.

**Q.** What about the IC50 (mA2a/CHO) of the same molecule?
**A.** The IC50 was 64 nM.

**Q.** CCn1cc(-c2nc(C(=O)NCc3ccccc3OC)c(N)nc2-c2ccc(F)cc2)ccc1=O [Example 69, 3-amino-6-(1-ethyl-6-oxo-1,6-dihydro-pyridin-3-yl)-5-(4-fluorophenyl)-N-(2-methoxybenzyl)pyrazine-2-carboxamide] was tested. Which IC50 (hA2a/CHO) did it give?
**A.** Its IC50 is 15 nM.

**Q.** What about the IC50 (hA2b/CHO) of the same molecule?
**A.** The IC50 was 213 nM.

**Q.** What about the IC50 (mA2a/CHO) of the same molecule?
**A.** The IC50 was 20 nM.

**Q.** COc1ccccc1CNC(=O)c1nc(-c2ccc(=O)n(C(C)C)c2)c(-c2ccc(F)cc2)nc1N [Example 70, 3-amino-5-(4-fluorophenyl)-6-(1-isopropyl-6-oxo-1,6-dihydropyridin-3-yl)-N-(2-methoxybenzyl)pyrazine-2-carboxamide] was tested. Which IC50 (hA2a/CHO) did it give?
**A.** The IC50 was 10 nM.

**Q.** What about the IC50 (hA2b/CHO) of the same molecule?
**A.** The IC50 was no less than 10000 nM.

**Q.** What about the IC50 (mA2a/CHO) of the same molecule?
**A.** Its IC50 is 5.2 nM.

**Q.** Which results are given for Nc1nc(-c2ccc(F)cc2)c(-c2ccc(=O)n(C3COC3)c2)nc1C(=O)NCc1c(F)cccc1F [Example 77]?
**A.** IC50 (hA2a/CHO): 17 nM; IC50 (hA2b/CHO): 358 nM; IC50 (mA2a/CHO): 26 nM

**Q.** COc1ccccc1CNC(=O)c1nc(-c2cc(C)c(=O)n(C)c2)c(-c2ccc(F)cc2)nc1N [Example 82, 3-amino-6-(1,5-dimethyl-6-oxo-1,6-dihydropyridin-3-yl)-5-(4-fluorophenyl)-N-(2-methoxybenzyl)pyrazine-2-carboxamide] was tested. Which IC50 (hA2a/CHO) did it give?
**A.** Its IC50 is 19 nM.

**Q.** And the IC50 (hA2b/CHO)?
**A.** Its IC50 is 276 nM.

**Q.** What about the IC50 (mA2a/CHO) of the same molecule?
**A.** Its IC50 is 59 nM.

**Q.** What does the source list for COc1ccccc1CNC(=O)c1nc(-c2cc(C)nc(C)c2)c(-c2ccc(F)cc2)nc1N [Example 89, 3-amino-6-(2,6-dimethylpyridin-4-yl)-5-(4-fluorophenyl)-N-(2-methoxybenzyl)pyrazine-2-carboxamide]?
**A.** IC50 (hA2a/CHO): 17 nM; IC50 (hA2b/CHO): 5620 nM; IC50 (mA2a/CHO): 297 nM

**Q.** How did the IC50 (hA2a/CHO) turn out when COc1cccc(F)c1CNC(=O)c1nc(-c2cc(C)nc(C)c2)c(-c2ccc(F)cc2)nc1N [Example 90, 3-amino-6-(2,6-dimethylpyridin-4-yl)-N-(2-fluoro-6-methoxybenzyl)-5-(4-fluorophenyl)pyrazine-2-carboxamide] was run?
**A.** The IC50 was 4 nM.

**Q.** What about the IC50 (hA2b/CHO) of the same molecule?
**A.** The IC50 was 781 nM.

**Q.** What about the IC50 (mA2a/CHO) of the same molecule?
**A.** The IC50 was 95 nM.

**Q.** Which IC50 (hA2a/CHO) does the source give for Cc1cc(-c2nc(C(=O)NCc3ccccc3OC(F)F)c(N)nc2-c2ccc(F)cc2)cc(C)n1 [Example 91, 3-amino-N-(2-(difluoromethoxy)benzyl)-6-(2,6-dimethylpyridin-4-yl)-5-(4-fluorophenyl)pyrazine-2-carboxamide] here?
**A.** The IC50 was 8.9 nM.

**Q.** What about the IC50 (hA2b/CHO) of the same molecule?
**A.** The IC50 was 1420 nM.

**Q.** And the IC50 (mA2a/CHO)?
**A.** The IC50 was 72 nM.

**Q.** Which IC50 (hA2a/CHO) does the source give for COc1ccc(F)cc1CNC(=O)c1nc(-c2cc(C)nc(C)c2)c(-c2ccc(F)cc2)nc1N [Example 92, 3-amino-6-(2,6-dimethylpyridin-4-yl)-N-(5-fluoro-2-methoxybenzyl)-5-(4-fluorophenyl)pyrazine-2-carboxamide] here?
**A.** The IC50 was 41 nM.

**Q.** What about the IC50 (hA2b/CHO) of the same molecule?
**A.** The IC50 was no less than 10000 nM.

**Q.** And the IC50 (mA2a/CHO)?
**A.** Its IC50 is 216 nM.

**Q.** Which results are given for COc1ccccc1CNC(=O)c1nc(-c2cc(C)nc(C)c2)c(-c2ccccc2)nc1N [Example 93, 3-amino-6-(2,6-dimethylpyridin-4-yl)-N-(2-methoxybenzyl)-5-phenylpyrazine-2-carboxamide]?
**A.** IC50 (hA2a/CHO): 8 nM; IC50 (hA2b/CHO): 354 nM; IC50 (mA2a/CHO): 127 nM

**Q.** Which IC50 (hA2b/CHO) does the source give for Cc1cnc2ccc(-c3nc(C(=O)NC[C@@H]4CCCN4C)c(N)nc3-c3ccc(F)cc3)cn12 [Example 139, (S)-3-amino-5-(4-fluorophenyl)-6-(3-methylimidazo[1,2-a]pyridin-6-yl)-N-((1-methylpyrrolidin-2-yl)methyl) pyrazine-2-carboxamide] here?
**A.** The IC50 was 932 nM.

**Q.** What about the IC50 (mA2a/CHO) of the same molecule?
**A.** The IC50 was 66 nM.
